“And” between values parts separate entries of the source, which are not always exact repeats. Equal entries are not always repeated. Toxic doses and inconclusive results are not listed.
System: P388 leukemia ip, CD2F1 mice, survival T/C
Assay: NCI In Vivo Anticancer Drug Screen. Data for tumor model P388 Leukemia (intraperitoneal) in CD2F1 (CDF1) mice
Conditions: endpoint: median survival time, higher = longer survival
Procedure, shortened: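 Mice carrying the transplanted tumor received test compound or vehicle. Survival was recorded in each group, and the value is the treated-group measurement divided by that of the vehicle-treated control group.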

[1] = dose: 50.0 mg/kg/injection, schedule: Q01DX009 (ip), vehicle: saline with Tween-80
[2] = dose: 100.0 mg/kg/injection, schedule: Q01DX009 (ip), vehicle: saline with Tween-80
[3] = dose: 200.0 mg/kg/injection, schedule: Q01DX009 (ip), vehicle: saline with Tween-80
[4] = dose: 50.0 mg/kg/injection, schedule: Q01DX009 (ip), vehicle: Klucel (hydroxypropylcellulose) (HPC)
[5] = dose: 50.0 mg/kg/injection, schedule: Q01DX009 (ip), vehicle: saline
[6] = dose: 100.0 mg/kg/injection, schedule: Q01DX009 (ip), vehicle: Klucel (hydroxypropylcellulose) (HPC)
[7] = dose: 100.0 mg/kg/injection, schedule: Q01DX009 (ip), vehicle: saline
[8] = dose: 200.0 mg/kg/injection, schedule: Q01DX009 (ip), vehicle: Klucel (hydroxypropylcellulose) (HPC)

SMILES: COC1CC(N)C2OC(c3ccccc3)OCC2O1 (stereo not drawn)
- T/C [1]: 99 % of control
- T/C [2]: 101 % of control
- T/C [3]: 109 % of control

SMILES: COC1=C(NC(C)=O)C(=O)c2nc(-c3nc(C(=O)O)c(C)c(-c4ccc(OC)c(OC)c4O)c3N)ccc2C1=O
- T/C (dose: 12.5 mg/kg/injection, schedule: Q01DX009 (ip), vehicle: distilled water + Tween-80): 119 % of control
- T/C (dose: 25.0 mg/kg/injection, schedule: Q01DX009 (ip), vehicle: distilled water + Tween-80): 118 % of control
- T/C (dose: 50.0 mg/kg/injection, schedule: Q01DX009 (ip), vehicle: distilled water + Tween-80): 119 % of control
- T/C (dose: 100.0 mg/kg/injection, schedule: Q01DX009 (ip), vehicle: distilled water + Tween-80): 119 % of control

SMILES: C=C(C(N)=O)C(N)C(=O)O (stereo not drawn)
- T/C (dose: 60.0 mg/kg/injection, schedule: Q01DX005 (ip), vehicle: saline with Tween-80): 120 % of control

SMILES: CCCCCCCCCC(C)CCCCC (stereo not drawn)
- T/C (dose: 25.0 mg/kg/injection, schedule: Q01DX001 (ip), vehicle: saline with Tween-80): 90 % of control
- T/C (dose: 50.0 mg/kg/injection, schedule: Q01DX001 (ip), vehicle: saline with Tween-80): 100 % of control
- T/C (dose: 100.0 mg/kg/injection, schedule: Q01DX001 (ip), vehicle: saline with Tween-80): 100 % of control

SMILES: C=C1C(=O)O[C@@H]2[C@H](O)[C@@H](C)[C@@H]3C=CC(=O)[C@@]3(C)[C@H](OC(=O)C=C(C)C)[C@H]12
- T/C (dose: 1.56 mg/kg/injection, schedule: Q01DX009 (ip), vehicle: saline with Tween-80): 121 % of control
- T/C (dose: 3.12 mg/kg/injection, schedule: Q01DX009 (ip), vehicle: saline with Tween-80): 120 % of control
- T/C (dose: 3.12 mg/kg/injection, schedule: Q01DX009 (ip), vehicle: saline): 151 % of control
- T/C (dose: 6.25 mg/kg/injection, schedule: Q01DX009 (ip), vehicle: saline with Tween-80): 117 % of control and 121 % of control
- T/C (dose: 12.5 mg/kg/injection, schedule: Q01DX009 (ip), vehicle: saline with Tween-80): 107 % of control and 121 % of control
- T/C (dose: 12.5 mg/kg/injection, schedule: Q01DX009 (ip), vehicle: saline): 150 % of control

SMILES: CCCCCCCC(=O)O[C@H]1[C@H]2[C@@H](CC1(C)C)C(=O)[C@]13O[C@H]1C(=O)[C@]1(CO1)[C@]23C
- T/C (dose: 2.2 mg/kg/injection, schedule: Q01DX009 (ip), vehicle: saline with Tween-80): 118 % of control
- T/C (dose: 5.0 mg/kg/injection, schedule: Q01DX009 (ip), vehicle: saline with Tween-80): 104 % of control and 122 % of control
- T/C (dose: 7.5 mg/kg/injection, schedule: Q01DX009 (ip), vehicle: saline with Tween-80): 118 % of control
- T/C (dose: 10.0 mg/kg/injection, schedule: Q01DX009 (ip), vehicle: saline with Tween-80): 95 % of control
- T/C (dose: 10.0 mg/kg/injection, schedule: Q01DX009 (ip), vehicle: saline): 105 % of control

SMILES: S=C(NNC(=S)Nc1ccccc1)Nc1ccccc1
- T/C (dose: 25.0 mg/kg/injection, schedule: Q01DX009 (ip), vehicle: saline): 102 % of control
- T/C [4]: 97 % of control
- T/C [5]: 109 % of control
- T/C [6]: 93 % of control
- T/C [7]: 100 % of control
- T/C [8]: 101 % of control
- T/C (dose: 400.0 mg/kg/injection, schedule: Q01DX009 (ip), vehicle: Klucel (hydroxypropylcellulose) (HPC)): 104 % of control

SMILES: Cc1ccc(S(=O)(=O)OCCC(C)(C)C)cc1
- T/C [1]: 106 % of control
- T/C [2]: 107 % of control
- T/C [3]: 111 % of control

SMILES: O=[N+]([O-])c1cccc(/C=C/C=C/c2ccc(Cl)c(S(=O)(=O)F)c2)c1
- T/C [2]: 86 % of control
- T/C [3]: 86 % of control
- T/C (dose: 400.0 mg/kg/injection, schedule: Q01DX009 (ip), vehicle: saline with Tween-80): 86 % of control

SMILES: O=C(c1ccccc1)N1CCCCC1
- T/C [5]: 95 % of control
- T/C [7]: 100 % of control
- T/C (dose: 100.0 mg/kg/injection, schedule: Q04DX003 (ip), vehicle: saline): 110 % of control
- T/C (dose: 200.0 mg/kg/injection, schedule: Q01DX009 (ip), vehicle: saline): 100 % of control
- T/C (dose: 200.0 mg/kg/injection, schedule: Q04DX003 (ip), vehicle: saline): 110 % of control

SMILES: Cc1cccc(C)c1OCc1n[nH]c(=S)n1-c1ccccc1
- T/C (dose: 50.0 mg/kg/injection, schedule: Q01DX005 (ip), vehicle: Klucel (hydroxypropylcellulose) (HPC)): 89 % of control
- T/C (dose: 100.0 mg/kg/injection, schedule: Q01DX005 (ip), vehicle: Klucel (hydroxypropylcellulose) (HPC)): 90 % of control
- T/C (dose: 200.0 mg/kg/injection, schedule: Q01DX005 (ip), vehicle: Klucel (hydroxypropylcellulose) (HPC)): 90 % of control

SMILES: CC(=O)CC(c1ccc(Cl)cc1)C(C#N)c1ccccc1 (stereo not drawn)
- T/C [4]: 89 % of control
- T/C [6]: 91 % of control
- T/C [8]: 86 % of control

SMILES: CS(=O)(=O)c1nc(N)c(S(N)(=O)=O)c(N)n1
- T/C [4]: 108 % of control
- T/C [6]: 111 % of control
